Measured values as given in PubChem BioAssay AID1963961 (Molecular Pharmacology Branch, DTP, NCI, 2024).
Values joined by “and” are separate entries in the source; they are usually repeats but may differ in a detail not shown here. Identical values can stand only once. Each block holds one compound with its values, some of them ahead of it.

Test system: K98450-129-R-PDC multicell spheroids, viability
Test: Anticancer human tumor K98450-129-R-PDC patient-derived colon adenocarcinoma cell line growth inhibition [PI3K]
Conditions: for viability, T/C: stronger effect = lower value
Text: Combinatorial screen of targeted agents with the PI3K inhibitors inavolisib, alpelisib, duvelisib, and copanlisib in multi-cell type tumor spheroids
A high-throughput screen of multi-cell type tumor spheroids was designed to identify active combinations of targeted small molecules and PI3K pathway inhibitors. Complex spheroids include a stromal component modeled by human endothelial cells (HUVEC) and fibroblasts modeled by human mesenchymal stem cells (MSCs). The concentration ranges selected for each drug and investigational agent were based upon clinically achievable concentrations if the clinical Cmax of the agent was known.
Compounds. The drugs and investigational agents: inavolisib (NSC800729), alpelisib (NSC765974), duvelisib (NSC772469), copanlisib (NSC816437), ipatasertib (NSC767898), afuresertib (NSC778305), talazoparib (NSC767125), sapanisertib (NSC764658), selumetinib (NSC741078), tovorafenib (DAY101, NSC766906), vemurafenib (NSC761431), ravoxertinib (NSC781343), sotorasib (NSC818433), MRTX1133 (NSC 836407), abemaciclib (NSC 768073), palbociclib (NSC758247), venetoclax (NSC 766270), SY5609 (NSC837396), enzalutamide (NSC755605), and darolutamide (NSC825331), were obtained from the National Cancer Institute (NCI) Developmental Therapeutics Program Chemical Repository. The FDA-approved anticancer drug set is available from the NCI Developmental Therapeutics Program. […] The stock solutions were prepared in dimethyl sulfoxide (DMSO, Sigma-Aldrich, St. Louis, MO, cat. D2650) at 800-fold the tested concentration and stored at -70 degrees C prior to their use. All drugs and investigational agents were tested over a range starting from a high concentration at or near the clinical Cmax and decreasing in half-log increments. If the clinical Cmax for an agent had not been determined, the highest concentration tested was 10 microM.
Cell Culture. All cells were maintained in an incubator at 37 degrees C and 5% CO2 with 95% humidity. The PDC lines were cultured according to standard operating procedures established by the NCI PDMR (https://pdmr.cancer.gov/sops/default.htm). All PDCs were thawed and cultured in Matrigel-coated flasks prepared with a working solution of 1X Ham's F-12 nutrient mix, without supplementation (Invitrogen, Waltham, MA, cat. 11765054), 100 U/mL penicillin-streptomycin (Invitrogen, cat. 15140122), and 2.5% Matrigel (Corning Inc., Corning, NY, cat. 354248) for the first three passages. The 354836-022-R-J1-PDC, 475296-252-R-J1-PDC, and 997726-040-R-J2-PDC lines were cultured in 6A media, which includes advanced DMEM/F-12 (Thermo Fisher Scientific, cat. 12634028), 10 mM HEPES (Thermo Fisher Scientific, cat. 15630080), 1X GlutaMAX supplement (Thermo Fisher Scientific, cat. 35050061), 0.1 mg/mL primocin (InvivoGen, San Diego, CA, cat. ant-pm-2), 10% defined fetal bovine serum, heat inactivated (HyClone Laboratories Inc., Logan, UT, cat. SH30070.03HI), 50% L-WRN conditioned media (ATCC, cat. CRL-3276), 1.25 mM N-Acetyl-L-cysteine (Sigma-Aldrich, cat. A9165), 10 mM nicotinamide (Sigma-Aldrich, cat. N0636), 1X B-27 supplement (Thermo Fisher Scientific, cat. 17504044), 1X N-2 supplement (Thermo Fisher Scientific, cat. 17502048), and 10 microM Y-27632 dihydrochloride (Tocris Bioscience, Bristol, United Kingdom, cat. 1254). The 624824-186-R-J2-PDC line was cultured in 6C/Colon 1B media, which includes all 6A media components plus 50 ng/mL human EGF recombinant protein (Thermo Fisher Scientific, cat. PHG0311). […]

[1] = curve of first compound, second compound 0.0316 µM
[2] = curve of first compound, second compound 0.1 µM
[3] = curve of first compound, second compound 0.316 µM
[4] = curve of first compound, second compound 1 µM
[5] = curve of first compound, second compound 3.16 µM
[6] = curve of first compound, second compound 10 µM
[7] = second compound 0.0316 µM, first compound 0.0316 µM
[8] = second compound 0.0316 µM, first compound 0.1 µM
[9] = second compound 0.1 µM, first compound 0.0316 µM
[10] = second compound 0.1 µM, first compound 0.1 µM
[11] = second compound 0.316 µM, first compound 0.0316 µM
[12] = second compound 0.316 µM, first compound 0.1 µM
[13] = second compound 1 µM, first compound 0.0316 µM
[14] = second compound 1 µM, first compound 0.1 µM
[15] = second compound 3.16 µM, first compound 0.0316 µM
[16] = second compound 3.16 µM, first compound 0.1 µM
[17] = second compound 10 µM, first compound 0.0316 µM
[18] = second compound 10 µM, first compound 0.1 µM
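Also: spheroids exposed to agents for seven days before read-out.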

SMILES: C=CC(=O)N1CCN(c2nc(=O)n(-c3c(C)ccnc3C(C)C)c3nc(-c4c(O)cccc4F)c(F)cc23)C(C)C1 (stereo not given)
viability, T/C (compound 0.0316 µM): 104% [middle of 4 runs]
viability, T/C (compound 0.1 µM): 98.4% [middle of 4 runs]
viability, T/C (compound 0.316 µM): 102% [middle of 4 runs]
viability, T/C (compound 3.16 µM): 56% [middle of 4 runs]

SMILES: CC1(C)CCC(CN2CCN(c3ccc(C(=O)NS(=O)(=O)c4ccc(NCC5CCOCC5)c([N+](=O)[O-])c4)c(Oc4cnc5[nH]ccc5c4)c3)CC2)=C(c2ccc(Cl)cc2)C1
viability, T/C (compound 0.0316 µM): 105% [middle of 4 runs]
viability, T/C (compound 0.1 µM): 106% and 102% (2×) and 85.6%
viability, T/C (compound 0.316 µM): 107% [middle of 4 runs]
viability, T/C (compound 1 µM): 104% [middle of 4 runs]
viability, T/C (compound 3.16 µM): 94.5% [middle of 4 runs]

Now from value to compound, other results behind:

IC50 [1]: > 100 nM
IC50 [2]: > 100 nM
IC50 [3]: > 100 nM
IC50 [4]: > 100 nM
IC50 [5]: > 100 nM
IC50 [6]: > 100 nM
SMILES: CC(C)n1nc(-c2ccc3oc(N)nc3c2)c2c(N)ncnc21 + CC(Nc1ncnc2nc[nH]c12)c1cc2cccc(Cl)c2c(=O)n1-c1ccccc1
viability, T/C (second compound 0.0316 µM, first compound 0.000316 µM): 106%
viability, T/C (second compound 0.0316 µM, first compound 0.001 µM): 91.5%
viability, T/C (second compound 0.0316 µM, first compound 0.00316 µM): 93.9%
viability, T/C (second compound 0.0316 µM, first compound 0.01 µM): 79%
viability, T/C [7]: 84.6%
viability, T/C [8]: 84.6%
viability, T/C (second compound 0.1 µM, first compound 0.000316 µM): 126%
viability, T/C (second compound 0.1 µM, first compound 0.001 µM): 96.9%
viability, T/C (second compound 0.1 µM, first compound 0.00316 µM): 106%
viability, T/C (second compound 0.1 µM, first compound 0.01 µM): 111%
viability, T/C [9]: 81.1%
viability, T/C [10]: 72.8%
viability, T/C (second compound 0.316 µM, first compound 0.000316 µM): 108%
viability, T/C (second compound 0.316 µM, first compound 0.001 µM): 134%
viability, T/C (second compound 0.316 µM, first compound 0.00316 µM): 81.3%
viability, T/C (second compound 0.316 µM, first compound 0.01 µM): 95.4%
viability, T/C [11]: 92.7%
viability, T/C [12]: 71.1%
viability, T/C (second compound 1 µM, first compound 0.000316 µM): 101%
viability, T/C (second compound 1 µM, first compound 0.001 µM): 111%
viability, T/C (second compound 1 µM, first compound 0.00316 µM): 84.3%
viability, T/C (second compound 1 µM, first compound 0.01 µM): 97.6%
viability, T/C [13]: 92.1%
viability, T/C [14]: 71.3%
viability, T/C (second compound 3.16 µM, first compound 0.000316 µM): 110%
viability, T/C (second compound 3.16 µM, first compound 0.001 µM): 97.4%
viability, T/C (second compound 3.16 µM, first compound 0.00316 µM): 103%
viability, T/C (second compound 3.16 µM, first compound 0.01 µM): 91.7%
viability, T/C [15]: 90.4%
viability, T/C [16]: 67.3%
viability, T/C (second compound 10 µM, first compound 0.000316 µM): 92.6%
viability, T/C (second compound 10 µM, first compound 0.001 µM): 84.2%
viability, T/C (second compound 10 µM, first compound 0.00316 µM): 87.1%
viability, T/C (second compound 10 µM, first compound 0.01 µM): 88.5%
viability, T/C [17]: 87.6%
viability, T/C [18]: 78.2%

IC50 [1]: > 10000 nM
IC50 [2]: > 10000 nM
IC50 [3]: > 10000 nM
IC50 [4]: > 10000 nM
IC50 [5]: > 10000 nM
IC50 [6]: > 10000 nM
SMILES: Cn1ncc(Cl)c1-c1cc(C(=O)NC(CN)Cc2cccc(F)c2)sc1Cl (stereo not given) + Cc1nc(NC(=O)N2CCCC2C(N)=O)sc1-c1ccnc(C(C)(C)C(F)(F)F)c1
viability, T/C [7]: 97.8%
viability, T/C [8]: 95%
viability, T/C (second compound 0.0316 µM, first compound 0.316 µM): 109%
viability, T/C (second compound 0.0316 µM, first compound 1 µM): 93.1%
viability, T/C (second compound 0.0316 µM, first compound 3.16 µM): 88.9%
viability, T/C (second compound 0.0316 µM, first compound 10 µM): 74.3%
viability, T/C [9]: 109%
viability, T/C [10]: 99.4%
viability, T/C (second compound 0.1 µM, first compound 0.316 µM): 99.7%
viability, T/C (second compound 0.1 µM, first compound 1 µM): 90.8%
viability, T/C (second compound 0.1 µM, first compound 3.16 µM): 89.2%
viability, T/C (second compound 0.1 µM, first compound 10 µM): 78.3%
viability, T/C [11]: 101%
viability, T/C [12]: 93.1%
viability, T/C (second compound 0.316 µM, first compound 0.316 µM): 91.9%
viability, T/C (second compound 0.316 µM, first compound 1 µM): 92.1%
viability, T/C (second compound 0.316 µM, first compound 3.16 µM): 91.3%
viability, T/C (second compound 0.316 µM, first compound 10 µM): 76.9%
viability, T/C [13]: 94%
viability, T/C [14]: 91%
viability, T/C (second compound 1 µM, first compound 0.316 µM): 97.1%
viability, T/C (second compound 1 µM, first compound 1 µM): 89.6%
viability, T/C (second compound 1 µM, first compound 3.16 µM): 91.7%
viability, T/C (second compound 1 µM, first compound 10 µM): 72.9%
viability, T/C [15]: 82.9%
viability, T/C [16]: 85.1%
viability, T/C (second compound 3.16 µM, first compound 0.316 µM): 86.8%
viability, T/C (second compound 3.16 µM, first compound 1 µM): 80.4%
viability, T/C (second compound 3.16 µM, first compound 3.16 µM): 86.2%
viability, T/C (second compound 3.16 µM, first compound 10 µM): 63.8%
viability, T/C [17]: 66.9%
viability, T/C [18]: 69.6%
viability, T/C (second compound 10 µM, first compound 0.316 µM): 74.1%
viability, T/C (second compound 10 µM, first compound 1 µM): 72.5%
viability, T/C (second compound 10 µM, first compound 3.16 µM): 78.5%
viability, T/C (second compound 10 µM, first compound 10 µM): 52.2%

IC50 (curve of compound): > 100 nM
SMILES: CC(C)n1nc(-c2ccc3oc(N)nc3c2)c2c(N)ncnc21
viability, T/C (compound 0.000316 µM): 103% [middle of 4 runs]
viability, T/C (compound 0.001 µM): 104% [middle of 4 runs]
viability, T/C (compound 0.00316 µM): 99.9% [middle of 4 runs]
viability, T/C (compound 0.01 µM): 98.2% [middle of 4 runs]
viability, T/C (compound 0.0316 µM): 95.5% [middle of 4 runs]
viability, T/C (compound 0.1 µM): 78.2% [middle of 4 runs]
